The test system of data set [1] is B and T cells isolated from primary tonsillar lymphocytes. The data set is described as follows: Viability of primary tonsillar lymphocytes, 72 h. Format: cell-based, human. To be noted: primary tonsillar lymphocytes of two donors, compared with SUDHL5.
The subject of another data set is PUMA/BBC3. The data set is described as follows: Global proteome profiling in SUDHL5, PUMA/BBC3 abundance. Format: cell-based, human. The settings on record: SUDHL5, 10 nM, 24 hours. The procedure:
SUDHL5 cells (6M cells in 6 mL RPMI-1640 media supplemented with 10% FBS and 1x pen-strep) were treated with 0.1% DMSO, 10 nM TCIP3, 10 nM Neg1, 10 nM Neg2, or 250 nM dCBP1 (1000x stocks in DMSO for final 0.1% DMSO concentration) in 3 biologically independent replicates. The cells were washed twice with TBS (50 mM Tris, pH 8.5, and 150 mM NaCl) and then stored at −80 °C until use.
Lysis was performed by first thermally denaturing the samples in residual wash buffer for 5 min at 95 °C. Fresh Lysis Buffer (8 M urea, 150 mM NaCl, and 100 mM HEPES, pH 8.0, in MS-grade water) was then added, and the lysates were homogenized using needle ultrasonication and then normalized to 30 μg of 2 mg/mL by diluting with Lysis Buffer via a Bradford protein concentration assay (Bio-Rad 5000006) in technical duplicates. […]
Samples were then desalted using SOLAμ SPE HRP Peptide Desalting columns (Thermo 60209–001) with a Positive Pressure Manifold and all MS-grade reagents. […] The samples were then reconstituted in 0.1% FA in water and then analyzed by LC-MS/MS (see below).
The reconstituted desalted peptides were then analyzed using a nanoElute 2 UHPLC (Bruker Daltonics, Bremen, Germany) coupled to a timsTOF HT (Bruker Daltonics, Bremen, Germany) via a CaptiveSpray nano-electrospray source. […]

Structures are written as SMILES. Entries after “also recorded” stand apart in the source; their conditions may differ.

On to `CNC(=O)COc1cc2cc(Nc3nc(N4CCC(C(=O)N5CCN(CCC(=O)N6CCC(n7nc(N8CCCc9cc(-c%10cnn(C)c%10)c(C(F)F)cc98)c8c7CCN(C(=O)NC)C8)CC6)CC5)CC4)ncc3Cl)cc(OC)c2n(C)c1=O` [TCIP3], for which, in data set [1], the “cytotoxicity” value is reported as “substantially reduced cytotoxicity; also recorded: without exhibiting toxicity”. For the same molecule, the “PUMA/BBC3 log2(TCIP3 / DMSO fold change)” value in the data set with PUMA/BBC3 is on record as 0.72.

Values taken from doi:10.1101/2025.03.14.643404, “A Bivalent Molecular Glue Linking Lysine Acetyltransferases to Oncogene-induced Cell Death” (bioRxiv, 2025).
